Measurements: patent US12144792B2, “Therapeutic agents for neurodegenerative diseases” (priority 2016, dated 2024)

Assays:
[1] = system: patient with oligosymptomatic MSA-C; assay: Gait analysis; format: in vivo, human; details: Ex. 8 Patient 3, MSA-C; 3 then 5 gram per day; after one month
Procedure: After one month of treatment, a further examination was carried out.
Treatment was again suspended and the patient was evaluated three weeks later.

[2] = system: Hexb^−/− mouse (Sandhoff disease model); assay: Step cycle; format: in vivo; details: Sandhoff mice, 0.1 g/kg from 3 weeks, 12 weeks of age
Procedure: This study made use of a mouse model of Sandhoff disease, the Hexb^−/− mouse, as described in Jeyakumar et al. (Jeyakumar, M. et al. (1999) Proc. Natl. Acad. Sci. USA 96: 6388-6393). Step cycle is the length of time taken during locomotion by a limb from the time it leaves the ground until it leaves the ground on the next occasion. Step cycle time was assessed at 12 weeks of age in untreated and acetyl-leucine treated Sandhoff model mice. Acetyl-leucine treatment constituted 0.1 g/kg body weight acetyl-leucine from 3 weeks of age.

[3] = system: Tay-Sachs disease patient fibroblasts; assay: Glycosphingolipid (GSL) levels via HPLC; format: cell-based, human; details: 1 mM for 6 days, p<0.05
NPC patients = assay: Clinical severity score (CSS) and annual severity increment score (ASIS); format: in vivo, human; details: ten NPC patients, 4.5 g/day
Source text: An NPC patient's severity may be quantified by assigning a clinical severity score (CSS), which assesses various parameters of the disease and gives each parameter a score out of 5 (higher score=greater severity). See Yanjanin et al., “Linear Clinical Progression, Independent of Age of Onset, in Niemann-Pick Disease, Type C,” Am J Med Genet Part B 153B:132-140. In an untreated patient, one can typically predict how the CSS will change over time in an individual, as disease progression appears to be linear. For example, if Patient A moves from a CSS of 8 to a CSS of 12 between month 0 and month 12, it can be predicted that by month 36, the patient will have a CSS of 20. The annual severity increment score (ASIS) quantities the annual rate of change in the CSS, calculated by dividing the CSS of a patient by the patient's age. […]
Ten NPC patients were administered acetyl-leucine at 4.5 g/day over long durations. A CSS was determined at baseline, and at various time points, for eye movement, ambulation, speech, swallow, fine motor skills, cognition, memory, and seizures. An overall CSS was calculated at baseline and at each such time point by adding the individual CSS values for each parameter (eye movement, ambulation, etc.).
The ASIS at baseline and each time point was calculated using each patient's CSS and age at the time of assessment. […]

Npc1^−/− mice = assay: Motor function analysis (Open Field Activity Monitor); format: in vivo, mouse; details: 0.1 g/kg from weaning, nine weeks of age, vs untreated littermates
Procedure: Separate groups of Npc1^−/− and Npc1^+/+ mice were left untreated, as controls. Motor function analysis was performed on mice at eight and nine weeks of age using an Open Field Activity Monitor according to manufacturer's instructions (Linton Instruments, Amlogger Software). Each mouse was placed in a plastic cage with bedding and analysed for five minutes. Rears were counted manually. Motor function parameters measured were: • 1. Centre Rearing: mice rearing on hind legs unsupported; • 2. Rearing: mice rearing on hind legs with and without the support of cage walls; • 3. Activity: regular movement of the animal including walks; • 4. Front to Back (FR) count: movement of the animal from front to back of the cage; • 5. Active Time: duration (s/min) of activeness regardless of movement; • 6. Mobile Time: duration (s/min) of mobility; • 7. Rearing Time: duration of any rearing.

CC(=O)NC(CC(C)C)C(=O)O (racemic) [acetyl-DL-leucine]
gait analysis, summary [1]: improvement of gait speed, and reductions of track width and gait fluctuations
average step cycle time ([2]; p<0.001 vs untreated): significantly faster average step cycle times
hind step cycle time ([2]; p<0.01 vs untreated): significantly faster hind step cycle times
front step cycle time ([2]; p<0.05 vs untreated): significantly faster front step cycle times
GSL levels [3]: this decrease was statistically significant
change of ASIS relative to baseline (NPC patients): all ten patients showed a reduction in ASIS
change of overall CSS over the course of the experiment (NPC patients): none of the ten patients showed an overall increase in CSS
motor function properties (Npc1^−/− mice): significantly improved motor function
